Test results: patent publication US10150734B2, “Solid forms of 2-(5-(3-fluorophenyl)-3-hydroxypicolinamido)acetic acid, compositions, and uses thereof” (Akebia Therapeutics, Inc., priority 2015, dated 2018)
In brackets after ≈: the same amount, converted by molar mass. Entries after “also recorded” stand apart in the source; their conditions may differ.

Legend:
[1] = Dynamic vapour sorption (moisture sorption) with XRPD of post-DVS material; type: physicochemical; conditions: for Moisture Sorption 60% RH / Moisture adsorbed at 60% RH / Moisture Sorption 90% RH / Weight moisture uptake at 60% RH / Weight moisture uptake at 90% RH: DVS; for Moisture Sorption 60% RH / Moisture adsorbed at 60% RH / Moisture Sorption 90% RH: 25.0 °C; for XRPD analysis of the post-DVS material: after DVS and drying at 60 °C for 2 hours; for Hygroscopicity (in words): from DVS moisture sorption
Description: Dynamic vapour sorption experiment was carried out by first holding the sample at 40% RH and 25.0° C. until an equilibrium weight was reached or for a maximum of four hours. The sample was then subjected to an isothermal (at 25.0° C.) adsorption scan from 40 to 90% RH in steps of 10%. The sample was allowed to equilibrate to an asymptotic weight at each point for a maximum of four hours. Following adsorption, a desorption scan from […] to 5% RH (at 25.0° C.) was run in steps of 10% again allowing a maximum of four hours for equilibration to an asymptotic weight. An adsorption scan was then performed from 0 to 40% RH in steps of 10%. The sample was then dried for no less than two hours at 60.0° C. and the resulting solid analyzed by XRPD.

[2] = Single form slurry experiments of Forms A, D and G; type: physicochemical; conditions: for Outcome in the single form and competitive slurry experiments (in words): ambient temperature, all tested conditions
Description: Single form slurry experiments were conducted for Forms A, D and G in three solvents stems, water, 1:2 v/v IPAc/heptane, and toluene to evaluate their physical form stability as a single polymorph (Table 14). Form A remained unchanged at six day time point. […] Form D remained unchanged for three days in water but converted to a mixture A and D at six days. In 1:2 IPAc/heptane and toluene, Form D converted to a mixture of A and D at three days and then Form A at six days. […] Form D is also a metastable polymorph but its conversion to Form A is kinetically slower than Form G. The conversion was the slowest in water partly due to low solubility.
Approximately 10-20 mg of Forms A, D and G were weighed into 8 mL clear vials equipped with magnetic stir bars (Table 14). Water, IPAc/Heptane (1:2 V/V) and toluene were used as the solvent systems for these competitive slurry experiments. Three selected solvents, 1.0 mL, were added to achieve free-flowing slurry and allowed to equilibrate at room temperature. All slurries will be isolated via centrifuge filtration after three day and six days of equilibration.

[3] = Competitive slurry experiment of Forms A, D and G; type: physicochemical; conditions: mixture of Forms A, D and G slurried in Water, RT
Description: To evaluate relative stability of the anhydrate polymorphs, competitive slurry experiments of Forms A, D and G were conducted as described in below and summarized in Table 12. In all three solvent systems, water, 1:2 v/v IPAc/heptane, and toluene, Form A was the final polymorph after equilibration for 8 days.
Slurry experiments were performed using the following procedure: a mixture of Form A (˜12.0 mg, Compound 1), Form D (˜12.0 mg) and Form G (˜12.0 mg) were weighed into a 20.0 mL clear vial equipped with magnetic stir bars (Table 12). Water, IPAc/Heptane (1:2 V/V) and toluene were used as the solvent systems for these competitive slurry experiments. Three selected solvents, 1.0 mL, were added to achieve free-flowing slurry and allowed to equilibrate at room temperature.

[4] = Thermal stability experiments (solid stored at 60 °C; XRPD and HPLC); conditions: for HPLC (% AUC): after storage at 60.0 °C; for Parent Material HPLC (% AUC): before storage at 60.0 °C; for Physical form / XRPD pattern change after storage at 60 °C for seven days (in words) / Chemical stability / degradation by HPLC after storage at 60 °C for seven days (in words): solid
[5] = Aqueous solubility (slurry in deionized water at room temperature, filtrate by HPLC, solids by XRPD); conditions: deionized water, room temperature, equilibrated with stirring, filtrate by HPLC
Description: Approximately 14-25 mg of Forms A, D and G were transferred to 20 mL vials equipped with magnetic stir bars. 1.0 mL of deionized water was added and the resulting free flowing slurry was allowed to equilibrate over 1 and 7 days period with stirring at room temperature. […] The filtrates were analyzed by HPLC to determine solubility.

[6] = Competitive slurry experiment of Forms A to H; type: physicochemical; conditions: IPAc/Heptane or toluene, RT
Description: Approximately 2 to 3 mg of materials from Forms A to H were weighed into a 20.0 mL clear vial equipped with magnetic stir bars (Table 13). IPAc/Heptane (1:2 V/V) and toluene were used as the solvent systems for these competitive slurry experiments. Two selected solvents, 1.0 mL, were added to achieve free-flowing slurry and allowed to equilibrate at room temperature. All slurries will be isolated via centrifuge filtration after one day and seven days of equilibration.

[7] = Slurry of a single salt (seven days of stirring in water / acetone), XRPD; type: physicochemical
[8] = Thermal holding (TGA thermal hold) experiments of salts, XRPD of resulting solid; type: physicochemical; conditions: held at 150 °C
[9] = Competitive slurry of calcium, potassium and sodium salts in acetone; type: physicochemical; conditions: acetone (50 μL water added for potassium and sodium salts), room temperature, one and seven days
Description: Calcium, sodium, and potassium salts were used to setup different competitive slurry experiments. For competitive slurry of calcium salts (˜5-6 mg of Salt I and Salt II) were weighed into a 5.0 mL clear vial equipped with magnetic stir bars. These steps were repeated for potassium salt material (˜5-6.5 mg of Salt III) and sodium salt materials (˜2.6-6.4 mg of Salt IV and Salt V). […] All slurries, 400 μL, were filtered through 0.45 micron centrifuge filters after one and seven days of equilibration. The solids were analyzed by XRPD to check for salt conversion (Table 36).

Moisture Sorption 60% RH ([1]; 60% RH)	Moisture adsorbed at 60% RH ([1]; 60% RH)	Moisture Sorption 90% RH ([1]; 90% RH)	Weight moisture uptake at 60% RH ([1]; 60% RH)	Weight moisture uptake at 90% RH ([1]; 90% RH)	XRPD analysis of the post-DVS material [1]	Hygroscopicity (in words) [1]	Outcome in the single form and competitive slurry experiments (in words) [2]	XRPD, Day 1 [3]	HPLC (% AUC) [4]	Parent Material HPLC (% AUC) [4]	Physical form / XRPD pattern change after storage at 60 °C for seven days (in words) [4]	Solubility (extrapolated values based on the standard curve 0.008-0.2 mg/mL) [5]	Moisture Sorption ([1]; 60% RH)	Moisture Sorption ([1]; 90% RH)	Compound	Chemical stability / degradation by HPLC after storage at 60 °C for seven days (in words) [4]	also measured
0%	0 wt %	6.1 wt %	about 0 % weight	about 6.1 % weight	consistent with the starting material	moderately hygroscopic	most stable polymorph	A + D	>99.9 % AUC	>99.9 % AUC	No chemical and physical form changes	0.0026 mg/mL (≈ 8.96 µM)			O=C(O)CNC(=O)c1ncc(-c2cccc(F)c2)cc1O [Form A, 2-(5-(3-fluorophenyl)-3-hydroxypicolinamido)acetic acid]	No chemical and physical form changes; also recorded: chemically stable	Moisture Sorption 90% RH ([1]; 90% RH, listed as A): 6.1 wt %
															O=C(O)CNC(=O)c1ncc(-c2cccc(F)c2)cc1O [Form B, 2-(5-(3-fluorophenyl)-3-hydroxypicolinamido)acetic acid]		Outcome in the competitive slurry experiment (in words) [6]: converted to Form A
	0.3 wt %	0.3 wt %			consistent with Salt IV of Compound 1	moderately hydroscopic					no change in XRPD pattern		60% RH: 0.3 wt %	90% RH: 0.3 wt %	O=C([O-])CNC(=O)c1ncc(-c2cccc(F)c2)cc1O.[Na+] [Salt IX]	no degradation	Form after seven days of stirring in water and acetone ([7]; water and acetone): converted to Salt VIII or Salt IV; XRPD of solid after thermal holding experiment at 150 °C [8]: consistent with the starting material
	1.0 wt %	2.7 wt %			consistent with the starting material	moderately hydroscopic					no change in XRPD pattern		60% RH: 1.0 wt %	90% RH: 2.7 wt %	O=C([O-])CNC(=O)c1ncc(-c2cccc(F)c2)cc1O.[Na+] [Salt VIII]	no degradation	Outcome of competitive slurry of salts (in words) [9]: stable in an acetone slurry; XRPD after seven days of stirring in acetone ([7]; acetone): no change in XRPD pattern

Compound	Moisture Sorption 60% RH ([1]; 60% RH)	Moisture adsorbed at 60% RH ([1]; 60% RH)	Moisture Sorption 90% RH ([1]; 90% RH)	Weight moisture uptake at 60% RH ([1]; 60% RH)	Weight moisture uptake at 90% RH ([1]; 90% RH)	XRPD analysis of the post-DVS material [1]	Hygroscopicity (in words) [1]	Outcome in the single form and competitive slurry experiments (in words) [2]	XRPD, Day 1 [3]	HPLC (% AUC) [4]	Parent Material HPLC (% AUC) [4]	Physical form / XRPD pattern change after storage at 60 °C for seven days (in words) [4]	Solubility (extrapolated values based on the standard curve 0.008-0.2 mg/mL) [5]	Moisture Sorption ([1]; 60% RH)	Moisture Sorption ([1]; 90% RH)	Chemical stability / degradation by HPLC after storage at 60 °C for seven days (in words) [4]	also measured
O=C(O)CNC(=O)c1ncc(-c2cccc(F)c2)cc1O [Form D, 2-(5-(3-fluorophenyl)-3-hydroxypicolinamido)acetic acid]	0.7%	0.7 wt %	1.0 wt %	about 0.7 % weight	about 1.0 % weight	consistent with the starting material	slightly hygroscopic	converted to Form A	A + D	>99.9 % AUC	>99.9 % AUC	maintained its chemical and physical form	0.49 mg/mL (≈ 1690 µM)			maintained its chemical and physical form; also recorded: chemically stable	Moisture Sorption 90% RH ([1]; 90% RH, listed as D): 1.0 wt %; XRPD, Day 3 ([2]; single form slurry, IPAc/Heptane (1:2 V/V), RT): A + D; XRPD, Day 3 ([2]; single form slurry, Toluene, RT): A + D; XRPD, Day 6 ([2]; single form slurry, Water, RT, day 6): A + D
